Data as given in patent US12643893B2, “Heteroaryl-pyridinium compound and redox flow battery comprising the same” (Korea Advanced Institute of Science and Technology, priority 2021, dated 2026).

Assays:
[1] = Cyclic voltammetry (CV) in three-electrode cells; format: physicochemical; conditions: for Peak to peak potential difference (ΔEp) / Ratio of anodic peak current (Ipa) to cathodic peak current (Ipc) (Ipa/Ipc) @50 mV s^−1: 1st event (or only value); for Ipa/Ipc @50 mV s^−1 / ΔEp: 1st event (single value for BTMAP-Fc)
Method: All electrochemical examinations were carried out using a Biologic VMP3 electrochemical workstation in an Ar-filled glove box (MOTek, negligible O2 and H2O, tested by the ketyl solution).
Cyclic voltammetry (CV) was conducted in three-electrode cells comprised of glassy carbon (GC; diameter (d)=3 mm) as the working electrode (WE), a platinum wire as the counter electrode (CE), and a leak-free Ag/AgCl as the reference electrode (RE). The GC electrodes were polished using alumina slurry before testing (ALS Co., Ltd).
After CV analysis, ferrocene (Fc, ferrocene, 98%, Sigma-Aldrich) was added to the cell to measure its redox potential, and the measured sample potential was converted to the Fc/Fc^+.

[2] = Rotating disk electrode LSV, diffusion coefficient (Levich equation); format: physicochemical
Method: To measure diffusion coefficient (D), rotating disk electrode (RDE; ALS Co., Ltd) measurements were conducted with the same three-electrode cells. […] Limited mass-transport provides a current plateau (iL) of redox processes, which is linearly proportional to the square root of the rotating rates (ω^1/2). The diffusion coefficient (D) was calculated by plotting IL as a function of ω^1/2 and through the Levich equation (equation S1). iL=0.620nFAD^2/3ω^1/2η^−1/6Co (equation S1)
where IL is the limiting current (A cm^−2), n is the number of electrons transferred during the redox reaction, F is the Faraday's constant (96485 C mol^−1), A is the area of the electrode (0.0707 cm^2), D is the diffusion coefficient (cm^2 […]), ω is the angular rotation rate (rad s^−1), η is the kinematic viscosity (0.00442 cm^2 s^−1, referred to 0.1 M TBAPF6/MeCN), and Co is the concentration of the sample chemical.

[3] = Electron-transfer rate from CV curves (Nicholson method); format: physicochemical
Method: The electron-transfer rate (k^0) was calculated from CV curves and using the Nicholson method(equation S2).
where k^o is the electron-transfer constant (cm/s), D is the diffusion coefficient estimated from the above RDE studies, R is the gas constant (8.314 J K^−1 mol^−1), T is the temperature (298 K), v is the scan rate of the CVs (mV s^−1).
The Ψ value was obtained by Kingler and Kochi relation (equation S3).
where ΔEp is the peak-to-peak potential for the corresponding reduction or oxidation event.

[4] = Solubility test (UV-vis calibration curves, maximum solubility); conditions: for solubility: organic solvent or mixture, thermodynamic from solid
[5] = after 100 cycles (in parentheses)
[6] = initial, 10 mM in 0.1 M TBABF4/MeCN
[7] = 1st redox event (or the only value given), 10 mM in 0.1 M TBABF4/MeCN
[8] = 2nd redox event, 10 mM in 0.1 M TBABF4/MeCN
[9] = c1, first cathodic event (single value for BTMAP-Fc, oxidation process)
[10] = MeCN, Solubility (M) in MeCN, in MeCN

| SMILES | Peak to peak potential difference (ΔEp) [1, 5] | Ratio of anodic peak current (Ipa) to cathodic peak current (Ipc) (Ipa/Ipc) @50 mV s^−1 [1, 5] | Peak to peak potential difference (ΔEp) [1, 6] | Ratio of anodic peak current (Ipa) to cathodic peak current (Ipc) (Ipa/Ipc) @50 mV s^−1 [1, 6] | Formal potential (E^o′) [1, 7] | Formal potential (E^o′) [1, 8] | solubility [4, 10] [M] | further results |
| --- | --- | --- | --- | --- | --- | --- | --- | --- |
| Cc1cc(-c2nc3ccccc3s2)cc(C)[n+]1C [DiMe-BTP^+·BF4^−, 4-(benzo[d]thiazol-2-yl)-1,2,6-trimethylpyridin-1-ium tetrafluoroborate] | 81 mV | 0.88 | 89 mV | 0.89 | 1st = −1.33 V vs. Fc/Fc^+ | 2nd = −1.94 V vs. Fc/Fc^+ |  | cyclability in the CV profile ([1]; 100 CV cycles, FIGS. 6 and 7): excellent cyclability |
| C[n+]1ccc(-c2nc3ccccc3o2)cc1 [BOP^+·BF4^−, 4-(benzo[d]oxazol-2-yl)-1-methylpyridin-1-ium tetrafluoroborate] | 1st = 105 (105) mV | 0.46 | 1st = 105 (105) mV | 0.79 | 1st = −1.15 V vs. Fc/Fc^+ |  |  |  |
| C[N+](C)(C)CCC[c-]1cccc1.C[N+](C)(C)CCC[c-]1cccc1.O=S(=O)([N-]S(=O)(=O)C(F)(F)F)C(F)(F)F.O=S(=O)([N-]S(=O)(=O)C(F)(F)F)C(F)(F)F.[Fe+2] [BTMAP-Fc·2TFSI^−, 1,1′-bis[3-(trimethylammonio)propyl]ferrocene dibis-trifluoromethanesulfonimidate, reference compound] |  |  |  |  |  |  |  | Ipa/Ipc @50 mV s^−1 [1, 5]: 1.03 (1.03); ΔEp [1, 5]: 149 (149) mV; Ipa/Ipc @50 mV s^−1 ([1]; initial): 1.03 (1.03); ΔEp ([1]; initial): 149 (149) mV; E^o′ ([1]; 1st redox event (single value for BTMAP-Fc), 4 mM in 0.1 M TBATFSI/MeCN): −0.03 V vs. Fc/Fc^+; Formal potential (E^o′) ([1]; first redox event (single event for BTMAP-Fc), CV, 4 mM in 0.1 M TBATFSI/MeCN): −0.03 V vs. Fc/Fc^+; peak-to-peak potential difference (ΔEp) ([1]; maintained for 100 CV cycles): ~150 mV; anodic-to-cathodic peak current ratio (Ipa/Ipc) ([1]; preserved during 100 CV cycles): about 1; diffusion coefficient (D) ([2]; 0.1 M TBATFSI/MeCN): 2.0×10^−6 cm^2 s^−1; D (diffusion coefficient) [2, 9]: 2.00 X10^−6 cm^2 s^−1; electron-transfer constant (k^o) ([3]; 0.1 M TBATFSI/MeCN): 0.034 cm/s; k^o (electron-transfer constant) [3, 9]: 0.034 cm/s |
| c1ccc2sc(-c3cc[n+](CCCCC[n+]4ccc(-c5nc6ccccc6s5)cc4)cc3)nc2c1 [Di-BTP^2+·2PF6^−, 1,1′-(pentane-1,5-diyl)bis(4-(benzo[d]thiazol-2-yl)pyridin-1-ium) hexafluorophosphate] |  |  |  |  |  |  | 0.1 |  |
| CCCCCCCCCC[n+]1ccc(-c2nc3ccccc3s2)cc1 [Dec-BTP^+·BF4^−, 4-(benzo[d]thiazol-2-yl)-1-decylpyridin-1-ium tetrafluoroborate] | 102 mV | 0.91 | 99 mV | 0.93 | 1st = −1.24 V vs. Fc/Fc^+ | 2nd = −1.96 V vs. Fc/Fc^+ | 0.07 | potential shift after CV cycles ([1]; FIG. 7): positive (+) potential shift |
| C[N+](C)(C)CCC[n+]1ccc(-c2nc3ccccc3s2)cc1 [TMAP-BTP^2+·2PF6^−, 4-(benzo[d]thiazol-2-yl)-1-(3-(trimethylammonio)propyl)pyridin-1-ium hexafluorophosphate] |  |  |  |  |  |  |  | solubility ([4]; 0.5 M TBAPF6 in MeCN, maximum solubility in electrolyte solution, 0.5 M TBAPF6/MeCN): 0.026 M; Solubility (M) MeCN ([4]; in MeCN): 0.25 M; Solubility (M) in MeCN ([4]; in MeCN): 0.25 M; maximum solubility in MeCN ([4]; in MeCN): 250 mM |
